Measurements published in PMC12305662, “Fragment-Based Development of Small Molecule Inhibitors Targeting Mycobacterium tuberculosis Cholesterol Metabolism” (Journal of Medicinal Chemistry, 2025).
Read-outs that look alike come from different tables or passages of the source.

Legend:
CYP125 = CYP125 (Mycobacterium tuberculosis, UniProt P9WPP1); assay type: binding; conditions: for Δλmax (nm) CYP125, fragment screen: fragment 1 mM, P450 4-6 µM, Soret shift relative to DMSO (393 nm); for CYP125 Δλmax (nm) HS: high spin population, '-' = no HS maxima present; for CYP125 Δλmax (nm) LS: low spin population, '-' = no LS maxima present
CYP143 = CYP143 (Mycobacterium tuberculosis, UniProt P9WPL3); conditions: fragment 1 mM, P450 4-6 µM; relative to DMSO (416 nm)
CYP124 = CYP124 (Mycobacterium tuberculosis, UniProt P9WPP3); conditions: fragment 1 mM, P450 4-6 µM; relative to DMSO (419 nm)
CYP142 = CYP142 (Mycobacterium tuberculosis, UniProt P9WPL5); conditions: for Δλmax (nm) CYP142, fragment screen: fragment 1 mM, P450 4-6 µM, relative to DMSO (418.5 nm); for CYP142 Δλmax (nm): compound 100 µM, P450 5 µM
CYP121 = CYP121 (Mycobacterium tuberculosis, UniProt P9WPP7); conditions: fragment 1 mM, P450 4-6 µM; relative to DMSO (417 nm)
CYP126 = CYP126 (Mycobacterium tuberculosis, UniProt P9WPN9); conditions: fragment 1 mM, P450 4-6 µM; relative to DMSO (418 nm)
CYP144 = CYP144 (Mycobacterium tuberculosis, UniProt P9WPL1); conditions: fragment 1 mM, P450 4-6 µM; relative to DMSO (421 nm)
[1] = compound 100 µM, P450 5 µM, ratio of low spin to high spin CYP125

CYP144, sequence (P9WPL1 whole entry, the tested form may be a part): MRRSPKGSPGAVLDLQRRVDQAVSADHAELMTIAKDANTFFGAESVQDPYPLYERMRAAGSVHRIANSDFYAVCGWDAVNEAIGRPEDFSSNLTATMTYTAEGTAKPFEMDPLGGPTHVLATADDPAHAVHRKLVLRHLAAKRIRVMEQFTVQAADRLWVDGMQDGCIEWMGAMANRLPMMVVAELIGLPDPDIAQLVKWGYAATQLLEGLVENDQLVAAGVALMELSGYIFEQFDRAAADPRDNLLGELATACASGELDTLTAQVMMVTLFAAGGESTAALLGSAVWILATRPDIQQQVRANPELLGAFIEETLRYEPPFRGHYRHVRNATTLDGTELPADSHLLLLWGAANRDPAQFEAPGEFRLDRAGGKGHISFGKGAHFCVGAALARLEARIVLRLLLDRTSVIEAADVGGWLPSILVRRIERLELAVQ
CYP124, sequence (P9WPP3 whole entry, the tested form may be a part): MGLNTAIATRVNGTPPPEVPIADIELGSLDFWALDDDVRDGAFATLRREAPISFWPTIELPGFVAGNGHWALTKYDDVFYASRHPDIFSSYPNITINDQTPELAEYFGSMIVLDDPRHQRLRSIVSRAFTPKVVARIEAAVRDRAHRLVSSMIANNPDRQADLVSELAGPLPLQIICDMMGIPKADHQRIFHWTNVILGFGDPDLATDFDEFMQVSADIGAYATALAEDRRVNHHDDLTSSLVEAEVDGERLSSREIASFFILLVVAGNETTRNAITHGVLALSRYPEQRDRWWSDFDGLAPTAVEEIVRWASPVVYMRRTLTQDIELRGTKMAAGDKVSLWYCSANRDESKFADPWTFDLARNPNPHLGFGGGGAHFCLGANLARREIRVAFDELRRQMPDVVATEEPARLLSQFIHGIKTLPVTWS
CYP121, sequence (P9WPP7 whole entry, the tested form may be a part): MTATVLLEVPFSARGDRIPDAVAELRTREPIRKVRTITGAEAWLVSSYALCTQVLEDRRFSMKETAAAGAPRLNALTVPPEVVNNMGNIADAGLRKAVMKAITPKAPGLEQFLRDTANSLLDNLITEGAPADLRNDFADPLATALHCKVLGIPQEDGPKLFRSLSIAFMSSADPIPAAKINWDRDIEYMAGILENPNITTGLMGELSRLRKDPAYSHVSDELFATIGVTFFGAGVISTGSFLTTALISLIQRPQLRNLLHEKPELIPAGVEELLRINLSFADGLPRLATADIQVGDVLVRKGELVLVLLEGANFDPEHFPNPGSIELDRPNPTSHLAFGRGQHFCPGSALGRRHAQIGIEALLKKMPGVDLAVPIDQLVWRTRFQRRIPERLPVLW
CYP126, sequence (P9WPN9 whole entry, the tested form may be a part): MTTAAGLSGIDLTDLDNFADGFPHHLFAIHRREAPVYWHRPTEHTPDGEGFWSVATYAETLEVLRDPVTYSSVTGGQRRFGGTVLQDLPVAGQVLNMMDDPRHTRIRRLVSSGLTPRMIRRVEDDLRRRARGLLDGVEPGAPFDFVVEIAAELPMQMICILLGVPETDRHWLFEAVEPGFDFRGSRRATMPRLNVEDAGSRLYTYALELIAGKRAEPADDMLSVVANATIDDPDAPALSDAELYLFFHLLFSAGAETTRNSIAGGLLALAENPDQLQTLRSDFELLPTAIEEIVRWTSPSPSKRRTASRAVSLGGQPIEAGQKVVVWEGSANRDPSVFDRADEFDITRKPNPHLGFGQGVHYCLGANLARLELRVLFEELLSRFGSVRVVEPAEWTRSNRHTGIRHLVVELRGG
CYP142, sequence (P9WPL5 whole entry, the tested form may be a part): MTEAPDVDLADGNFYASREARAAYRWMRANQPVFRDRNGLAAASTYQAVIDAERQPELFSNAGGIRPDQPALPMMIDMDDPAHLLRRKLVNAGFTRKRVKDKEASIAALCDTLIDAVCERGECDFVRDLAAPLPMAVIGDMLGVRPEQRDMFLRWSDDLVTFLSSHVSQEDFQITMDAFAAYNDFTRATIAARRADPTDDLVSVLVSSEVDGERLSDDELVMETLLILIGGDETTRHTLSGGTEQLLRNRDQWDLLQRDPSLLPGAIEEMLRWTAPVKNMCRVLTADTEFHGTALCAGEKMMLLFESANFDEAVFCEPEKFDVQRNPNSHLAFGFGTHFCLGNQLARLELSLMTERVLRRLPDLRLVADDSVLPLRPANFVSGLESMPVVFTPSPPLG
CYP125, sequence (P9WPP1 whole entry, the tested form may be a part): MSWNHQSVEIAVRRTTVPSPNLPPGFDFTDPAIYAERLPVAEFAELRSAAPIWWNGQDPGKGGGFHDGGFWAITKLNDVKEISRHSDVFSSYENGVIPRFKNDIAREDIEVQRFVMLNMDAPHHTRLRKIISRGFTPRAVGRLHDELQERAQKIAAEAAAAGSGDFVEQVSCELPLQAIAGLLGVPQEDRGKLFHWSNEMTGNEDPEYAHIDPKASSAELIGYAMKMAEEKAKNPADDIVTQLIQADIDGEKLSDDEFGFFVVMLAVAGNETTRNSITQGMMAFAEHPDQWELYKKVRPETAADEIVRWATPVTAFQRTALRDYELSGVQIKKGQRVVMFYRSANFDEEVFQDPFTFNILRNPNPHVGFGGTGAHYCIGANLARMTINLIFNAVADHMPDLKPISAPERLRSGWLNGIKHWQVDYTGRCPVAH
CYP143, sequence (P9WPL3 whole entry, the tested form may be a part): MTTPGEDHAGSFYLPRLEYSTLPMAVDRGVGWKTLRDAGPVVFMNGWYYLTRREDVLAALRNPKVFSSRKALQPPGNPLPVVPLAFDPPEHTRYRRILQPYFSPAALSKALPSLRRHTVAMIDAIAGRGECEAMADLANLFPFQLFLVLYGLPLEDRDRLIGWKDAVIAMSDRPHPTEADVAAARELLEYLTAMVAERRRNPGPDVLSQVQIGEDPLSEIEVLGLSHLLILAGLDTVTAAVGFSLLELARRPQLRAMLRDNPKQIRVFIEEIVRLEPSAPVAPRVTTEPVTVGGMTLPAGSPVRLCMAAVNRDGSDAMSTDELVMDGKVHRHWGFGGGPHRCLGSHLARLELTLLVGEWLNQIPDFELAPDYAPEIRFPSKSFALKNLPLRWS

Molecule | Δλmax (nm) CYP125, fragment screen (CYP125) [nm] | Δλmax (nm) CYP143, fragment screen (CYP143) [nm] | Δλmax (nm) CYP124, fragment screen (CYP124) [nm] | Δλmax (nm) CYP142, fragment screen (CYP142) [nm] | Δλmax (nm) CYP121, fragment screen (CYP121) [nm] | Δλmax (nm) CYP126, fragment screen (CYP126) [nm] | Δλmax (nm) CYP144, fragment screen (CYP144) [nm] | CYP125 Δλmax (nm) HS (CYP125; compound 100 µM, P450 5 µM) [nm] | CYP125 Δλmax (nm) LS (CYP125; compound 100 µM, P450 5 µM) [nm] | CYP125 LS/HS (CYP125; [1]) | CYP142 Δλmax (nm) (CYP142) | CYP125 LS/HS (CYP125)
c1ccc(-c2ccn[nH]2)nc1 [compound 2] | 0 | 0 | 0 | 0 | 0 | 0 | 0 | – | – | – | – | –
COc1ccc(C(C)=O)cn1 [compound 31] | 0 | 0.5 | 0 | 0 | 0 | 0 | 0 | – | – | – | – | –
COc1cccc(Cc2ccncc2)c1 [3a, 4-(3-Methoxybenzyl)pyridine] | – | – | – | – | – | – | – | 1 | 27 | 1.1 | 2 | –
c1ccc(Cc2cccnc2)cc1 [compound 20] | 28 | 2 | 1 | 3 | 2 | 1 | 0 | – | – | – | – | –
Nc1ccc(-n2cccn2)cc1 [compound 49] | 0 | 1 | 0 | 0 | 0 | 2 | 0 | – | – | – | – | –
Cc1cc(N)n(-c2ccccc2)n1 [compound 6] | 0 | 0.5 | 0 | 0 | 0 | 0 | 0 | – | – | – | – | –
CNCc1cccc(-c2ccccc2)c1 [compound 21] | 25 | 4 | -1 | 3 | 0 | 1 | 0 | – | – | – | – | –
Nc1ccc(Cc2ccncc2)cc1 [3e] | – | – | – | – | – | – | – | 3 | 29 | – | 3 | 1.7
c1ccc(N2CCOCC2)nc1 [compound 63] | 0 | 1 | 0 | 0 | 0 | 0 | 0 | – | – | – | – | –
Cc1nn(-c2ccccc2)nc1C(=O)O [compound 18] | 0 | 0 | 0 | 0 | 0 | 0 | 0 | – | – | – | – | –
O=C(O)CCc1nc2ccccc2[nH]1 [compound 34] | 0 | 0.5 | 0 | 0 | 0 | 0 | 0 | – | – | – | – | –
O=C(O)c1ccnn1-c1ccccc1 [compound 51] | 0 | 0.5 | 0 | 0 | -1 | 0 | 0 | – | – | – | – | –
Brc1ccc(Nc2ccncc2)cc1 [4i, N-(4-Bromophenyl)pyridin-4-amine] | – | – | – | – | – | – | – | 2 | 29 | 1.2 | 4 | –
O=C(O)c1ccc(Nc2ccncc2)cc1 [4f, 4-(Pyridin-4-ylamino)benzoic Acid] | – | – | – | – | – | – | – | 1 | – | – | 0 | –
C(=C\c1ccncc1)/c1ccccc1 [2g, (E)-4-Styrylpyridine] | – | – | – | – | – | – | – | – | 29 | 1.4 | 3 | –
c1ccc(N(c2ccccc2)c2ccncc2)cc1 [2c, N,N-Diphenylpyridin-4-amine] | – | – | – | – | – | – | – | 2 | 28 | 1 | 4 | –
Clc1cccnc1Cl [compound 61] | – | 0 | 0 | 0 | 0 | 0 | 0 | – | – | – | – | –
O=C(O)c1cccc(Nc2ccncc2)c1 [4e, 3-(Pyridin-4-ylamino)benzoic Acid] | – | – | – | – | – | – | – | 0 | – | – | 0 | –
O=S(=O)(c1ccccc1)c1ccncc1 [2e, 4-(Phenylsulfonyl)pyridine] | – | – | – | – | – | – | – | 0 | – | – | 0 | –

Molecule | Δλmax (nm) CYP125, fragment screen (CYP125) [nm] | Δλmax (nm) CYP143, fragment screen (CYP143) [nm] | Δλmax (nm) CYP124, fragment screen (CYP124) [nm] | Δλmax (nm) CYP142, fragment screen (CYP142) [nm] | Δλmax (nm) CYP121, fragment screen (CYP121) [nm] | Δλmax (nm) CYP126, fragment screen (CYP126) [nm] | Δλmax (nm) CYP144, fragment screen (CYP144) [nm] | CYP125 Δλmax (nm) HS (CYP125; compound 100 µM, P450 5 µM) [nm] | CYP125 Δλmax (nm) LS (CYP125; compound 100 µM, P450 5 µM) [nm] | CYP125 LS/HS (CYP125; [1]) | CYP142 Δλmax (nm) (CYP142) | CYP125 LS/HS (CYP125)
O=C(c1ccccc1)c1ccncc1 [2f] | – | – | – | – | – | – | – | 0 | – | – | 0 | –
Nc1cccc(Nc2ccncc2)c1 [4a, N^1-(Pyridin-4-yl)benzene-1,3-diamine] | – | – | – | – | – | – | – | 1 | 22 | 0.9 | 3 | –
Brc1cccc(Nc2ccncc2)c1 [4h, N-(3-Bromophenyl)pyridin-4-amine] | – | – | – | – | – | – | – | – | 31 | 1.4 | 4 | –
COC(=O)c1cccc(Nc2ccncc2)c1 [4c, Methyl/Ethyl 3-(pyridin-4-ylamino)benzoate] | – | – | – | – | – | – | – | 1 | 27 | 1 | 3 | –
Nn1cccc1C(=O)O [compound 62] | – | 4 | 0 | 0 | – | 0 | 0 | – | – | – | – | –
O=[N+]([O-])c1ccc(Br)c2ccncc12 [compound 59] | 0 | – | 1 | 0 | – | 0 | 0 | – | – | – | – | –
OCc1cccc(Nc2ccncc2)c1 [4g] | – | – | – | – | – | – | – | 0 | – | – | 1 | –
COc1ncccc1C(=O)O [compound 65] | – | 1 | 0 | 0 | 0 | 0 | 0 | – | – | – | – | –
Nc1ccc(Nc2ccncc2)cc1 [4b, N^1-(Pyridin-4-yl)benzene-1,4-diamine] | – | – | – | – | – | – | – | 1 | 31 | 1.3 | 3 | –
Nc1cccnc1N [compound 66] | – | 0 | 0 | 0 | – | 0 | 0 | – | – | – | – | –
COc1ccc(Cc2ccncc2)cc1 [3b, 4-(4-Methoxybenzyl)pyridine] | – | – | – | – | – | – | – | 1 | 25 | 1 | 2 | –
c1ccc(CCc2ccncc2)cc1 [2h, 4-Phenethylpyridine] | – | – | – | – | – | – | – | 2 | 26 | 1 | 2 | –
Nc1cccnc1O [compound 45] | 0 | 0 | 0 | 0 | – | 0 | 0 | – | – | – | – | –
c1ccc(Oc2ccncc2)cc1 [2d, 4-Phenoxypyridine] | – | – | – | – | – | – | – | 1 | 25 | 1 | 2 | –
3-(Pyridin-4-ylmethyl)aniline [3d] | – | – | – | – | – | – | – | 3 | 29 | – | – | –
COC(=O)c1ccc(Nc2ccncc2)cc1 [4d, Methyl 4-(pyridin-4-ylamino)benzoate] | – | – | – | – | – | – | – | 2 | 26 | 1 | 3 | –
Clc1nccc2ccc(Br)cc12 [compound 37] | 0 | – | 0 | 0 | -3 | 0 | 0 | – | – | – | – | –
CN(c1ccccc1)c1ccncc1 [2b, N-Methyl-N-phenylpyridin-4-amine] | – | – | – | – | – | – | – | 1 | 25 | 0.9 | 4 | –
